Results from patent US6107291A, “Azepine or larger medium ring derivatives and methods of use” (Amgen Inc., priority 1998, dated 2000).

Columns and labels:
[1] = target: Human fibroblast stromelysin (HFS) (Homo sapiens, UniProt P08254); assay: Human Fibroblast Stromelysin Assay (fluorogenic peptide substrate); format: biochemical
Procedure: Human fibroblast stromelysin (HFS) activity is determined by using fluorogenic peptide substrate Dnp-Pro-b-Cyclohexyl-Ala-Gly-Cys(Me)-His-Ala-Lys-(N-methylanthranilic acid)-NH2. The N-terminus Dnp group and the C-terminus N-methyl-anthranilyl moiety (Nma) are fluorescence self-quenching until the peptide is cleaved at the Gly-Cys(me) bond. The fluorescence from the cleavage products is measured on a Bio-Tek Instrument FL500 fluorescence micro-plate reader (excitation at 360 nm, emission at 460 nm). […] The test compounds (at 100, 33 & 10 mM) are compared for their inhibition of HFS activity on the substrate against the activity of Actinonin and Ki's were determined on selected compounds.

[2] = target: Human neutrophil collagenase (HNC) (Homo sapiens, UniProt P22894); assay: Human Neutrophil Collagenase Assay (fluorogenic peptide substrate); format: biochemical
Human neutrophil collagenase (HNC), sequence (P22894 101-467): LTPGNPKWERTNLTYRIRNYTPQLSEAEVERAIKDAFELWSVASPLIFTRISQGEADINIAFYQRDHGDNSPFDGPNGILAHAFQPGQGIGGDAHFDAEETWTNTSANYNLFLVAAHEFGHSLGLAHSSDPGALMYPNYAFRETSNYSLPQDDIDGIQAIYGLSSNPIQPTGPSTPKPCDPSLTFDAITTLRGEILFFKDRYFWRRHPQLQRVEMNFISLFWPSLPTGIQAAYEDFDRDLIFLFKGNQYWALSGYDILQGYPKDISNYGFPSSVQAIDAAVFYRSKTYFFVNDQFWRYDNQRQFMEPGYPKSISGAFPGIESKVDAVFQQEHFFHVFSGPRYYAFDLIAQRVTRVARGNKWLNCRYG
Procedure: Human neutrophil collagenase (HNC) activity is determined by using fluorogenic peptide substrate Dnp-Pro-b-Cyclohexyl-Ala-Gly-Cys (Me)-His-Ala-Lys-(N-methylanthranilic acid)-NH2. The N-terminus Dnp group and the C-terminus N-methyl-anthranilyl moiety (Nma) are fluorescence self-quenching until the peptide is cleaved at the Gly-Cys(me) bond. The fluorescence from the cleavage products is measured on a Bio-Tek Instrument FL500 fluorescence micro-plate reader (excitation at 360 nm, emission at 460 nm). […] The test compounds (at 100, 33 & 10 mM) are compared for their inhibition of HNC activity on the substrate against the activity of Actinonin and Ki's were determined on selected compounds.

TNF-α [3] = details: Phase II human trial, rheumatoid arthritis; cited from earlier work
TNF-α [4] = details: soluble receptors for TNF-α; cited from earlier work

Human fibroblast stromelysin (HFS), sequence (P08254 100-477): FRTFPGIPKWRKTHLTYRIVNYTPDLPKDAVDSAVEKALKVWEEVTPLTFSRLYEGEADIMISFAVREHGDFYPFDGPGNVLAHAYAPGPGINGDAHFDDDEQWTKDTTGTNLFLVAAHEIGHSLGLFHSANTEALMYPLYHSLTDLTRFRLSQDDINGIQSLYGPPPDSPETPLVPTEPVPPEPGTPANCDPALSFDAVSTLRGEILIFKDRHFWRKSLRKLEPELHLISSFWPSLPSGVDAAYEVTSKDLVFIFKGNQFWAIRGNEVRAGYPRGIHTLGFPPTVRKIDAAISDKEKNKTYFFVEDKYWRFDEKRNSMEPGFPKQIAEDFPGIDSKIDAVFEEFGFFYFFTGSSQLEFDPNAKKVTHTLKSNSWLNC

“Dnp-Pro-b-Cyclohexyl-Ala-Gly-Cys (Me)-His-Ala-Lys-(N-methylanthranilic acid)-NH2” gave a Km [1] of 0.051 µM and a Km [2] of 0.051 µM.

In the case of “cA2: a monoclonal antibody specific to TNF-α, cA2”, the swollen joint count (TNF-α [3]) is listed as “improvement in swollen joint count”.

B1: TNFR-55: soluble receptors for TNF-α (protein, UniProt P19438 30-211, looked up)
extracellular domain: LVPHLGDREKRDSVCPQGKYIHPQNNSICCTKCHKGTYLYNDCPGPGQDTDCRECESGSFTASENHLRHCLSCSKCRKEMGQVEISSCTVDRDTVCGCRKNQYRHYWSENLFQCFNCSLCLNGTVHLSCQEKQNTVCTCHAGFFLRENECVSCSNCKKSLECTKLCLPQIENVKGTEDSGTT
modifications: extracellular domain
notes: soluble receptors for TNF-α
For B1, the “efficacy in animal models of TNF-α mediated disease states” value (TNF-α [4]) is listed as “demonstrated efficacy in animal models of TNF-α mediated disease states”.
